Our source for the Ratio IC50 and IC50 values is ChEMBL document CHEMBL1212749, “In vitro activity of mirincamycin (U24729A) against Plasmodium falciparum isolates from Gabon” (Antimicrob Agents Chemother, 2010).

In test [1] the test system is Plasmodium falciparum. As to the kind of experiment: Ratio of IC50 for Plasmodium falciparum 3D7A after 6 days to IC50 for Plasmodium falciparum 3D7A after 3 days by HRP2 enzyme-linked immunosorbent assay. The format is functional.
For test [2], the system named is Plasmodium falciparum. As to the kind of experiment: Antimalarial activity against Plasmodium falciparum clinical isolate after 6 days by HRP2 enzyme-linked immunosorbent assay. The format is functional, organism-based. The conditions noted are these: 144 h.

In the case of `CCCCCC1CN[C@@H](C(=O)N[C@H]([C@H]2O[C@H](SC)[C@H](O)[C@@H](O)[C@H]2O)[C@@H](C)Cl)C1` (stereo partly drawn), the Ratio IC50 in test [1] was over 10000. Take `CCC[C@@H]1C[C@@H](C(=O)N[C@@H]([C@H]2O[C@H](SC)[C@H](O)[C@@H](O)[C@H]2O)[C@H](C)Cl)N(C)C1` [CLINDAMYCIN]: the IC50 (usually the point on the concentration scale where inhibition reaches its midpoint) in test [2] was 11.6 nM. Consider `C[C@H]1c2cccc(O)c2C(=O)C2=C(O)[C@]3(O)C(=O)C(C(N)=O)=C(O)[C@@H](N(C)C)[C@@H]3[C@@H](O)[C@@H]21` [DOXYCYCLINE], for which half-maximal inhibition in test [2] (IC50) was put at 720 nM.
